Measurements reported in patent publication US8318491B2, “Method of differentiating hematopoietic stem cells into natural killer cells using YC-1 or IL-21” (Korea Research Institute of Bioscience and Biotechnology, priority 2007, dated 2012).

How the values were obtained:
[1] = tested on: hematopoietic stem cells of cord blood / NK precursor cells (pNK); assay: FACS analysis of CD56+ NK cell population during differentiation of cord blood hematopoietic stem cells into mature NK cells via NK precursor cells; assay type: cell-based, human; conditions: for NK cells (FACS analysis): in the presence of IL-15, FIGS. 10 and 11; for CD56+ NK cell population: cultured in the presence of IL-15, vs IL-15 alone
Protocol: Cord blood provided from Department of Obstetric & Gynecology, Konyang University Hospital, Taejon, Korea, for the purpose of study only was diluted in RPMI 1640 (GIBCO-BRL, USA) at the ratio of 2:1. The prepared cord blood was loaded on the upper part of Ficoll-Paque (Sigma, USA), followed by centrifugation ([…], 30 minutes) to separate mononuclear cells (MNC). Erythrocytes were eliminated from the obtained cells and the obtained mononuclear cells were marked with the hematopoietic stem cell marker ‘CD34 microbeads’. Then, CD34+ cells were separated by MS/RS column and MACS (Magnetic Activated Cell Sorter). The purity of the obtained CD34+ hematopoietic stem cells (referred as “HSC cells” hereinafter) was measured by FACS (BD Bioscience, Mountainview, Calif.), which was 92% (FIG. 1).
The HSC cells separated from cord blood in Example 1 were inoculated in a 12-well plate (Falcon, USA) containing the Myelocult complete medium (Stem cell Technology, CA) supplemented with 30 ng/ml of human […] (PeproTech, USA), 50 ng/ml of human Flt3L (FMS-like tyrosine kinase 3 ligand, PeproTech, USA), 5 ng/ml of human IL-7 (PeproTech, USA), and 10^−6 M of […] at the concentration of 1×10^6 cells/well, followed by culture for 14 days in a 37° C., 5% CO2 incubator. Three days later, half of the supernatant was replaced with a fresh medium containing cytokines having the same composition as the above. For the differentiation into mature NK cells (referred as “NK cells” hereinafter), HSC cells were recovered 14 days later and cultured again for 14 days in the presence of human IL-15 (30 ng/ml, PeproTech, USA). Three days later, half of the medium was replaced with a fresh medium containing cytokines having the same composition as the above. (FIG. 2). On the 28th day of culture, the purity of NK cells was measured by using anti-CD56 antibody and the expression of NK cell receptor was measured by flow cytometry (FACS) (FIG. 3).
(§1) To investigate the effect on NK cell differentiation of IL-21 known to promote differentiation and increase activity, IL-21 (20 ng/ml, PeproTech, USA) was treated during the process of differentiation from hematopoietic stem cells of cord blood into mature NK cells (mNK) through NK precursor cells (pNK). The cells were cultured in the presence of IL-15, followed by FACS analysis and ^51Cr release assay.
To investigate the effect on NK cell differentiation of YC-1 [3-(5′-hydroxymethyl-2′-furyl)-1-benzylindazole, formula 1] known as an anticancer agent functioning in suppressing HIF-1α activity to inhibit tumor cell growth, YC-1 (1 uM, Sigma) was treated during the process of differentiation from hematopoietic stem cells of cord blood into mature NK cells (mNK) through NK precursor cells (pNK). […]

[2] = tested on: NK cells; assay: 51Cr release assay of the killing activity of differentiated mature NK cells; assay type: cell-based, human; conditions: cultured in the presence of IL-15
Protocol: as §1
To investigate the effect on NK cell differentiation of YC-1 [3-(5′-hydroxymethyl-2′-furyl)-1-benzylindazole, formula 1] known as an anticancer agent functioning in suppressing HIF-1α activity to inhibit tumor cell growth, YC-1 (1 uM, Sigma) was treated during the process of differentiation from hematopoietic stem cells of cord blood into mature NK cells (mNK) through NK precursor cells (pNK). The cells were cultured in the presence of IL-15, followed by FACS analysis and ^51Cr release assay.

## OCc1ccc(-c2nn(Cc3ccccc3)c3ccccc23)o1 [YC-1, 3-(5′-hydroxymethyl-2′-furyl)-1-benzylindazole]
[1]; YC-1 0.5 uM alone (low concentration)
  NK cells (FACS analysis): slightly increased
[1]; YC-1 1 uM treated to pNK, FIGS. 7 and 8
  CD56+ NK cell population: increased
[2]; YC-1 1 uM, E:T 5:1, FIG. 9
  killing activity of NK cells: increased

## IL-21: cytokine secreted by activated CD4+ T cells; amino acid sequence represented by SEQ. ID. NO: 1 (PeproTech)
[1]; IL-21 10 ng/ml alone (low concentration)
  NK cells (FACS analysis): slightly increased
[1]; IL-21 20 ng/ml treated to pNK, FIGS. 4 and 5
  CD56+ NK cell population: increased
[2]; IL-21 20 ng/ml, E:T 2.5:1, FIG. 6
  killing activity of NK cells: increased
